One may read the EC50 as the concentration needed to bring the measured effect to its halfway point.

The values that follow come from patent publication US10570184B2, “GLP-1/glucagon receptor co-agonists for medical use” (Novo Nordisk A/S, priority 2014, dated 2020).

Starred links: 1 amine or outer side, 2 acyl side, 3 side chain; linkers in the order of their positions; H or OH if unused. Non-standard residues stand in square brackets, D forms with d. Residues, ends and D or L forms follow the SMILES beside them. Groups on a side chain read outwards from the residue. *: point of attachment. C18 diacid = O=C(O)CCCCCCCCCCCCCCCCC(=O)*; γGlu = O=C(O)[C@H](CCC(=O)[*:2])N[*:1]; Ac4c = NC1(C(=O)O)CCC1; AEEA = NCCOCCOCC(=O)O; Aib = CC(C)(N)C(=O)O

The target in data set [1] is T1, human GLP-1 receptor (Homo sapiens, UniProt P43220).
T1 construct: expressed in transfected cells; host or cells: membranes of BHK cells (parent BHKTS13), clone FCW467-12A
Nature of the data set: Assay (I)(a) GLP-1 receptor activation, CRE luciferase reporter gene assay in BHK cells. Particulars: without presence of serum albumin; read-out: GLP-1R EC50 (pM) [Assay (I)(a)]. It counts as cell-based. In short, it runs like this: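 Stable BHK clone expressing human GLP-1 receptor with CRE-driven firefly luciferase, 5×10EE3 cells/well in medium with 2% ovalbumin and 0.2% Pluronic F-68. Compounds at 1×10EE-13 to 1×10EE-6 M final, 3 h at 37° C.; luminescence read, EC50 (pM) from four-parameter fit.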
For orientation: In a reporter assay the amount or activity of a reporter protein is the signal.

Data set [2] can be described thus: Assay (III) ThT fibrillation assay for physical stability. It counts as physicochemical. Particulars: 250 μM in 10 mM HEPES buffer, 37° C., shaking 960 rpm. Put shortly: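 Glucagon derivative at 250 μM in 10 mM HEPES pH 7.5 with 1 μM ThT was incubated at 37 °C under 960 rpm orbital shaking. Fluorescence (ex 444/em 485 nm) was read every 20 min and fitted for lag time (t0−2τ) and kapp (1/τ). Recovery was soluble peptide after centrifugation/filtration, by RP-HPLC, as percent of initial.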

T1 sequence (P43220 24-463): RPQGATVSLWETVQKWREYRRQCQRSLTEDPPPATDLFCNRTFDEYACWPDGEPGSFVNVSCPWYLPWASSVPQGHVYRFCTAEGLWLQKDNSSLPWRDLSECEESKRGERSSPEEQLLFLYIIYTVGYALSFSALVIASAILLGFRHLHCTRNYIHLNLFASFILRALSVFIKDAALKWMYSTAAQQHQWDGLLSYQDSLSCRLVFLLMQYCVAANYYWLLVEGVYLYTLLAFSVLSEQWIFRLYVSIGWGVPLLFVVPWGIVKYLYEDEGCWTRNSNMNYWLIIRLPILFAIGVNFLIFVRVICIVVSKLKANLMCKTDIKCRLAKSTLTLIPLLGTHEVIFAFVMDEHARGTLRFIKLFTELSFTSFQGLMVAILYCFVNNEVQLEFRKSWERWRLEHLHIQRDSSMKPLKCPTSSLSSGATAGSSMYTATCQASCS

For the compound `CC[C@H](C)[C@H](NC(=O)[C@H](CC(C)C)NC(=O)[C@H](Cc1c[nH]c2ccccc12)NC(=O)[C@H](CCC(N)=O)NC(=O)[C@@H](NC(=O)[C@H](Cc1ccccc1)NC(=O)[C@H](CC(=O)O)NC(=O)[C@H](CCCNC(=N)N)NC(=O)[C@H](C)NC(=O)[C@H](CCCNC(=N)N)NC(=O)[C@H](CCCNC(=N)N)NC(=O)[C@H](CO)NC(=O)[C@H](CCC(=O)O)NC(=O)[C@H](CC(C)C)NC(=O)[C@H](Cc1ccc(O)cc1)NC(=O)[C@H](CCCNC(=N)N)NC(=O)[C@H](CO)NC(=O)[C@H](Cc1ccc(O)cc1)NC(=O)[C@H](CC(=O)O)NC(=O)[C@H](CO)NC(=O)[C@@H](NC(=O)[C@H](Cc1ccccc1)NC(=O)[C@@H](NC(=O)CNC(=O)[C@H](CCC(N)=O)NC(=O)C(C)(C)NC(=O)[C@@H](N)Cc1c[nH]cn1)[C@@H](C)O)[C@@H](C)O)C(C)C)C(=O)N[C@@H](CCCCNC(=O)CC[C@H](NC(=O)COCCOCCNC(=O)CC[C@H](NC(=O)COCCOCCNC(=O)CC[C@H](NC(=O)COCCOCCNC(=O)CC[C@H](NC(=O)CC[C@H](NC(=O)CCCCCCCCCCCCCCCCC(=O)O)C(=O)O)C(=O)O)C(=O)O)C(=O)O)C(=O)O)C(=O)N[C@H](C(N)=O)[C@@H](C)O` [Chem. 37, N^28-[(4S)-4-carboxy-4-[[2-[2-[2-[[(4S)-4-carboxy-4-[[2-[2-[2-[[(4S)-4-carboxy-4-[[2-[2-[2-[[(4S)-4-carboxy-4-[[(4S)-4-carboxy-4-(17-carboxyheptadecanoylamino)butanoyl]amino]butanoyl]amino]ethoxy]ethoxy]acetyl]amino]butanoyl]amino]ethoxy]ethoxy]acetyl]amino]butanoyl]amino]ethoxy]ethoxy]acetyl]amino]butanoyl]-[Aib2,Arg12,Glu15,Arg20,Ile27,Lys28]-Glucagon amide] (H-H[Aib]QGTFTSDYSRYLESRRARDFVQWLIK([γGlu-AEEA-γGlu-AEEA-γGlu-AEEA-γGlu-γGlu-C18 diacid])T-NH2; N-terminus assumed), in data set [1], the EC50 was 4 pM. Besides, in data set [2], the “ThT Assay Lag time (h) [Assay (III), pH 7.5]” value is 6.3 h.
In the same order, the values of `CC[C@H](C)[C@H](NC(=O)[C@H](CC(C)C)NC(=O)[C@H](Cc1c[nH]c2ccccc12)NC(=O)[C@H](CCC(N)=O)NC(=O)[C@@H](NC(=O)[C@H](Cc1ccccc1)NC(=O)[C@H](CCC(=O)O)NC(=O)[C@H](CCC(N)=O)NC(=O)[C@H](C)NC(=O)[C@H](CCCNC(=N)N)NC(=O)[C@H](CCCNC(=N)N)NC(=O)[C@H](CO)NC(=O)[C@H](CCC(=O)O)NC(=O)[C@H](CC(C)C)NC(=O)[C@H](Cc1ccc(O)cc1)NC(=O)[C@H](CCCCN)NC(=O)[C@H](CO)NC(=O)[C@H](CC(C)C)NC(=O)[C@H](CC(=O)O)NC(=O)[C@H](CO)NC(=O)[C@@H](NC(=O)[C@H](Cc1ccccc1)NC(=O)[C@@H](NC(=O)CNC(=O)[C@H](CCC(N)=O)NC(=O)C1(NC(=O)[C@@H](N)Cc2c[nH]cn2)CCC1)[C@@H](C)O)[C@@H](C)O)C(C)C)C(=O)N[C@@H](CCCCNC(=O)CC[C@H](NC(=O)COCCOCCNC(=O)COCCOCCNC(=O)CC[C@H](NC(=O)CC[C@H](NC(=O)CCCCCCCCCCCCCCCCC(=O)O)C(=O)O)C(=O)O)C(=O)O)C(=O)N[C@H](C(N)=O)[C@@H](C)O` [Chem. 38, N^ε28-[(4S)-4-carboxy-4-[[2-[2-[2-[[2-[2-[2-[[(4S)-4-carboxy-4-[[(4S)-4-carboxy-4-(17-carboxyheptadecanoylamino)butanoyl]amino]butanoyl]amino]ethoxy]ethoxy]acetyl]amino]ethoxy]ethoxy]acetyl]amino]butanoyl]-[Acb2,Leu10,Glu15,Glu21,Ile27,Lys28]-Glucagon amide] (H-H[Ac4c]QGTFTSDLSKYLESRRAQEFVQWLIK([γGlu-AEEA-AEEA-γGlu-γGlu-C18 diacid])T-NH2; N-terminus assumed) are 2 pM and 45.0 h.
